Test results reported in patent publication US10919943B2, “Mutant proteins enabling agrochemical control of plant gene expression” (The Regents of the University of California, priority 2016, dated 2021).

Test system: 35S::GFP-cyt-HAB1* and 35S::nuc-PYR1*^-MANDI
Assay: Mandipropamid control of protein nuclear localization, transient co-expression, confocal microscopy
Type: in vivo, N. benthamiana
Conditions: 50 μM mandipropamid, 24 hours; FIG. 13
From the text: To test this idea, we created a nuclear localized version of PYR1*^-MANDI (SEQ ID NO:32) and a cytoplasmically localized GFP-HAB1*(SEQ ID NO:33), co-expressed the two components in N. benthamiana, and subsequently examined the localization of GFP-HAB1* in response to mandipropamid using confocal microscopy. To accomplish this, we cloned PYR1*^-MANDI into the yeast two hybrid vector pAD, generating a GAL4 activation domain fusion to PYR1*^-MANDI. The GAL4 activation domain present in pAD contains a synthetic SV40 nuclear localization signal (NLS) at its N-terminus. […]
To characterize these components, 35S::GFP-cyt-HAB1* and 35S::nuc-PYR1*^-MANDI were transiently co-expressed in N. benthamiana, as described above, and plants treated with a mock or mandipropamid solution (FIG. 13). […] The leaf tissue was scanned manually by epi-fluorescence to identify patches of GFP^+ cells and then observed by spinning disk confocal microscopy, collecting ˜10 micron deep sections that spanned the entire epidermal cell layer. […] Fluorescence imaging was done using a custom built spinning disk system (Solamere Technology, Inc) with a Yokagawa W1 spinning disk (Yokagawa), EM-CCD camera (Hamamatsu 9100c) and a Nikon Eclipse TE (Nikon) inverted stand. […]

How did the “localization of GFP-cyt-HAB1*” value turn out when `C#CCOc1ccc(CCNC(=O)C(OCC#C)c2ccc(Cl)cc2)cc1OC` (stereo not shown) [mandipropamid] was run?
Its value is “predominantly nuclear localization pattern”.
